Assay results taken from a melting point compilation (Tetko et al.; mined from patent text by program, amines drawn as free bases though some values may be those of a salt).

| SMILES | melting point [°C] |
| --- | --- |
| COc1cc2c(cc1Nc1ncc(Cl)c(Nc3ccc(N(C)C)cc3S(=O)(=O)C(C)C)n1)CCN(CC(=O)N(C)C)CC2 | 81 to 93 |
| CCOC(=O)c1ccc(C(F)(F)F)c(O)n1 | 141 to 142 |
| CC(C)C(C(=O)O)N(C)C(=O)OC(C)(C)C (stereo not drawn) | 83 to 85 |
| CCCCOCC(O)COc1ccc(-c2nc(-c3ccc(C)cc3C)nc(-c3ccc(C)cc3C)n2)c(O)c1 (stereo not drawn) | 80 to 83 |
| CSc1cc2c(cc1C(F)(F)F)N(C(=O)Nc1ccc(C(=O)Nc3ccncc3)cc1)CC2 | 158 to 160 |
| O=C(NCCOc1ccc(CC(Oc2cc(F)c(F)c(F)c2)C(=O)O)cc1)c1ccc(-c2ccccn2)cc1 (stereo not drawn) | 144 to 146 |
| NC(=S)Nc1ccc(CCNCc2cccc(Cl)c2)cc1 | 132 to 134 |
| Nc1n[nH]cc1C(=O)NC/C=C\COc1cc(CN2CCCCC2)ccn1 | 172 to 174 |
| C=C(C(=O)c1ccc(-n2ccnc2)nc1)c1ccc(F)cc1F | 115 to 116 |
| COC(=O)c1cc(I)cc(Cl)c1OC | 41 to 43 |
| COc1ccnc(CCc2nc3c(C)ccnc3[nH]2)c1 | 143 to 144 |
| Cn1nc2c(-c3ccc(Cl)cc3Cl)cccc2c1-n1cnnc1 | 118 to 121 |
| c1ccc2cc3sccc3cc2c1 | 193 to 194 |
| COc1cccc(-n2c(CCl)nc3ccccc3c2=O)c1 | 180 to 182 |
| CCCCOc1ccc(Nc2cc(Nc3ccc4c(c3)OCCO4)ncc2F)cc1 | 150 to 151 |
| O=C(OC1c2nccnc2C(=O)N1c1ccc(Cl)cn1)N1CCNCC1 (stereo not drawn) | 205 |
| CC(=NNCCc1ccccc1)C(=O)O | 74 to 76 |
| CC(=O)C=Cc1cn(CC(=O)N(C)CCc2ccccc2)c2ccc(OCc3ccccc3)cc12 | 150 to 152 |
| CC(=O)Nc1nc2c(s1)CCN(C(=O)OCc1ccccc1)CC2 | 126 to 128 |
| COCc1cccc(C=CC(O)c2ccccc2)c1NC(=O)CC1c2ccccc2Oc2ccccc21 (stereo not drawn) | 204 to 206 |
| CS(=O)(=O)O[C@H]1CC[C@H](Nc2ccnc3cc(Cl)ccc23)CC1 | 154 to 159 |
| O=[N+]([O-])c1cc(-c2csc(-c3cccnc3)n2)cc(O)c1O | 279 to 281 |
| N#Cn1nc(-c2ccccc2)c(=O)cc1Cl | 117 to 119 |
| Cc1cc(C(C)(C)C)c(OC(=O)c2ccccc2C(=O)Oc2c(C(C)(C)C)cc(C)cc2C(C)(C)C)c(C(C)(C)C)c1 | 262 to 265 |
| CC#CCOc1ccc(S(=O)[C@@H](C(=O)NO)c2ccc(-c3cccs3)cc2)cc1 (stereo partly drawn) | 158 |

| SMILES | melting point [°C] |
| --- | --- |
| CC(C)(C)c1cc(-c2csc(CN3CCSCC3)n2)cc(C(C)(C)C)c1O | 153 to 155 |
| Cn1c(=N)sc2cc(OC(F)(F)F)ccc21 | 60 to 62 |
| O=C(Nc1ccccc1Oc1ccc(Cl)cc1)C1CCNCC1 | 138 to 140 |
| C=CCC(C#N)(C#N)Cc1c(F)c(F)c(F)c(F)c1F | 78.2 |
| O=C(NCc1ccccc1)c1cc2ccnc(Cl)c2[nH]1 | 217 to 220 |
| COc1ccc(N2CCN(CCC3OCCc4cc(C(=O)N(C)C)ccc43)CC2)cc1 (stereo not drawn) | 94 to 96 |
| COc1cc2c(cc1OC)N(c1ccc([N+](=O)[O-])cc1[N+](=O)[O-])CC2 | 219 |
| CN(C)C=CC(=O)c1c(-c2ccc(C(C)(C)NC(=O)OC(C)(C)C)cc2)ccc2nn(C3CCCCO3)cc12 (stereo not drawn) | 191 to 194 |
| Cn1c(C(F)(F)F)cc(=O)n(-c2ccc(Cl)c(C=CC#N)c2)c1=O | 263 to 265 |
| CCCc1cnn2c(O)cc(CC)nc12 | 279 to 281 |
| Cc1nc(C)c(CN2CCN(C)CC2)c(-c2ccccc2OCc2ccc(Cl)cc2)n1 | 110 to 111 |
| CCOC(=O)/C=C/c1ccc(-c2ccc(OCc3ccccc3)c(C34CC5CC(CC(C5)C3)C4)c2)c(Cl)c1 | 148 to 150 |
| O=C(O)[C@H](Cc1ccccc1)Nc1c(N2CCN(c3ccccc3)CC2)c(=O)c1=O | 165 to 167 |
| Cn1cc(Cl)cc(Br)c1=O | 162 to 163 |
| CN1CCN(c2cccc(-c3cnn4cc(C(=O)O)cnc34)c2)CC1 | 274 to 281 |
| C=C(C)CNc1cc(C(=O)O)cc(S(N)(=O)=O)c1Sc1ccc(NC(C)=O)cc1 | 193 to 195 |
| C=CCC(C(N)=O)C(CC(C)C)C(=O)NC1N=C(c2cccnc2)c2ccccc2N(C)C1=O (stereo not drawn) | 251 to 253 |
| COC(=O)c1cccc(C(=O)c2ccc(O)c(OC)c2)c1 | 133 to 134 |
| CC(C)n1nc(-c2cnc(N)nc2-c2ccc(F)c(F)c2)ccc1=O | 208 |
| COc1cc(Nc2nccc(-c3ccc(N4CCN(C)[C@@H](C)C4)nc3)n2)cc(OC)c1OC | 92 to 93 |
| N[C@@H]1CN2C(=O)N(c3cc(Cl)cc(Cl)c3)C(=O)[C@@]2(Cc2ccc(Br)cc2)C1 | 64.4 |
| CCCc1nc2c(N)nc3ccccc3c2n1CCCCC(=O)N(C)OC | 150 to 151 |
| Nc1cc(=O)n(Cc2cccc([N+](=O)[O-])c2)[nH]1 | 163 |
| CCn1nc(-c2ccc(Cl)cc2[N+](=O)[O-])c2c1CCCC2=O | 184 |
| NC(=O)c1c[nH]c2c1ccc1c3ccccc3[nH]c12 | > 300 |

| SMILES | melting point [°C] |
| --- | --- |
| COc1ccc(COc2cccc(C=O)c2)cc1 | 78 |
| CC#Cc1ccc(NC(=O)c2ccccc2NCc2ccc(OC)nc2)cc1C(F)(F)F | 123 to 124 |
| CC(=O)c1cc(C#N)c(=O)[nH]c1-c1ccccc1 | 259 to 261 |
| COC(=O)c1ccc(-c2nc(O)c(C)s2)cc1 | 219 to 220 |
| C=CCc1cc(O)c(CC=C)c(C=O)c1O | 102 |
| COC(=O)c1ccc2c(c1)c(Cc1ccc(C(=O)Cl)cc1OC)cn2C | 147 to 149 |
| N#CCCNC(=O)c1cccc(-c2cccc3c2CN(Cc2cccc(C(F)(F)F)c2)C3=O)c1 | 191 to 192 |
| C=CCOc1ccccc1C(=O)Nc1c(CCC)nn(C)c1C(N)=O | 132 to 134 |
| N#Cc1ccc(C(=O)CNc2ccc(I)cc2)cc1 | 160 to 165 |
| COc1ccc([N+](=O)[O-])c(OC2CCOC2=O)c1 (stereo not drawn) | 109 to 110 |
| COc1cccc(CNC(=O)c2nc3cccc(OCc4ccc(-c5nnn[nH]5)cc4)c3c(=O)[nH]2)c1 | 227 to 229 |
| CCOC(=O)C1=NOC2(CCC(C3CCCCC3)CC2)C1 (stereo not drawn) | 64 to 71 |
| CCOC(=O)Cc1ccc(NC(=O)CCc2cnoc2-c2ccc(Cl)cc2)cc1 | 117 to 118 |
| CC(C)Oc1nc(CO)sc1C(=O)NCc1ccc(Cl)cc1Cl | 127 to 128 |
| CC(C)c1nccn1-c1nc(-c2ccc(Cl)cc2)c(CCC(=O)O)o1 | 173 to 174 |
| Cc1ccc(Cl)c2nc3cccc(C(=O)NCCCN(C)CCCNC(=O)c4cccc5nc6c(Cl)ccc(C)c6nc45)c3nc12 | 200 to 202 |
| Cc1cc(SC(C)C)c(NC(=O)CCCCCCSc2nc3ccccc3s2)c(SC(C)C)n1 | 74 to 76 |
| O=S(=O)(Nc1ccccc1Oc1cccc2cccnc12)c1ccc(F)cc1 | 243 to 244 |
| O=c1[nH][nH]c(C(F)(F)F)c1Cc1ccc(F)cc1 | 159 to 160 |
| Cc1nc2c(-c3cccc(N4CCC(N5CCCC5)CC4)c3)cnn2c(N)c1-c1cccc(Cl)c1 | 188 to 193 |
| COC1=CN=C(COC(c2ccccc2)(c2ccccc2)c2ccccc2)CC1=O | 185 to 187 |
| CCC(C#N)Oc1nc2cc(OC)cc(OC)c2cc1-c1ccc(OC)cc1 (stereo not drawn) | 89 to 90 |
| COC(=O)C(F)=CCS(=O)(=O)c1ccccc1 | 104 to 105 |
| Cc1[nH]c(Cc2ccccc2)nc1C=O | 171 to 173 |
| Brc1ccc2c(c1)N=C(N1CCN(Cc3ccccc3)CC1)c1cccc3c1N2CC3 | 129 to 131 |

| SMILES | melting point [°C] |
| --- | --- |
| Cc1nc(C(C)C)c(S(=O)(=O)c2ccccc2)n1COCc1ccccc1 | 116 to 117 |
| CC(=O)NC1(C#N)CC(C)(C)NC(C)(C)C1 | 153 to 160 |
| N#Cc1ccc(CNC(c2ccccc2)c2ccccc2)cc1 | 75 |
| CC(C)(C)OC(=O)CN1CCC(CNC(=O)c2cc(Cl)c(N)[nH]c2=O)CC1 | 200 to 203 |
| CCOC(=NC(=O)c1ccc(Cl)cc1Cl)N1Cc2ccccc2-c2ccccc2C1 | 158 to 159 |
| CCOC(=O)c1cn(-c2nc(NCc3ccc(OC)cc3)c(F)cc2F)c2c(Cl)c(F)c(F)cc2c1=O | 197 to 200 |
| COc1cc(C2CCC(c3cc(OC)c(OC)c(OC)c3)C2O)cc(OC)c1OC (stereo not drawn) | 138 to 140 |
| N#CCC1OC(n2cnc3c(NN4CCC(Sc5ccccc5)CC4)nc(Cl)nc32)C(O)C1O (stereo not drawn) | 159 to 161 |
| O=C(c1ccccc1)c1ccc(C(=O)c2ccc(C(=O)c3ccccc3)cc2)cc1 | 224 to 228 |
| CN(C)C(=O)c1cncc([N+](=O)[O-])c1 | 65 |
| CC(=O)N[C@@H](CCc1ccc([N+](=O)[O-])cc1)C(=O)O | 211 to 213 |
| O=S(=O)(c1ccc(Cl)cc1)C1(c2nnnn2Cc2ccccc2)CCCCC1 | 154 to 155 |
| Cc1cc2cc(NC(=O)Nc3ccc(Cl)cc3)ccc2[nH]1 | 257 to 260 |
| CC(=O)O[C@@H]1[C@H](OC(C)=O)[C@@H](C)O[C@H]1n1c(Cl)nc2c(Cl)c(Cl)c(Cl)cc21 | 126 to 127 |
| CSc1ncc(C(=O)O)c(Nc2ccc3[nH]ncc3c2)n1 | > 270 |
| CC(C)(O)C1CCN(Cc2ccccc2)CC1 | 66 |
| Cc1cc(OCCC[Si](C)(C)C)c(Cl)cc1[N+](=O)[O-] | 66 to 68 |
| CSc1nc2c(C)cccc2c2c1CCN2c1ccccc1C | 111 to 113 |
| Cc1cc(Br)cnc1CCCCNc1ncc(Cc2ccc(Cl)cc2)c(=O)[nH]1 | 149 to 150 |
| CC(CO)(Sc1cc2ccccc2[nH]1)c1ccccc1 (stereo not drawn) | 126 to 127 |
| O=C1NC(=O)c2c1c1c3ccc(F)cc3[nH]c1c1c2c2ccc(F)cc2n1C1OC2COC(C2O)C1O (stereo not drawn) | > 300 |
| C=CCc1c(OC)ccc(-c2cc(-c3ccc(Cl)cc3)n(-c3ccc(OC)cc3)n2)c1OC | 44 to 46 |
| c1cc(C2NCCc3sccc32)ccn1 (stereo not drawn) | 81.8 to 83.8 |
